# System: Penicillium expansum
# Assay: Fungicidal activity in vitro: mycelial growth on Cristomalt agar
# Type: cell-based
# Conditions: PE; MIC expressed on the scale of Table 2
# Protocol: (§1) The Cristomalt medium used for the evaluations of the fungicidal activities comprises 0.1% of Cristomalt (malt extract) and 0.2% of agar.
# (§2) This culture medium is, after sterilization, brought to 55° C. The terpene compound tested is then introduced in the pure form into the culture medium under warm conditions. Immediately after agitating, the medium, enriched with the terpene product, is poured into Petri dishes (diameter 9 cm, filled with 20 ml of medium). The agar-comprising medium solidifies on cooling. The Petri dishes are then inoculated with plugs, with a diameter of 6 mm, withdrawn from the edge of a culture of the tested fungus, which culture is obtained on Cristomalt medium.
# (§3) Inoculation is carried out at 22° C.
# (§4) The mycelial growth was determined periodically (5 to 15 days, according to the species of fungus).
# (§5) The results are expressed in Table 3 below in terms of MIC, which is the content (in μg/ml) which makes it possible to obtain complete inhibition of mycelial growth.
# (§6) In f act, each experiment was carried out several times, so that, for each terpene and for each species of fungus, a minimum value and a maximum value were obtained.
row,Structure (SMILES),Inhibition grades
1,"C=C(C)C1CC=C(C)C(=O)C1 (stereo not drawn) [CARVONE, carvone]",5 (80-160)
2,"C=CCc1ccc(O)c(OC)c1 [EUGENOL, eugenol]",7 (20-40)
3,"CC12CCC(CC1)C(C)(C)O2 [EUCALYPTOL, eucalyptol]",1 (>1280)
4,"CC=Cc1ccc(O)c(OC)c1 [ISOEUGENOL, isoeugenol]",7 (20-40)
5,"C=CCc1ccc2c(c1)OCO2 [SAFROLE, safrole]",2 (640-1280)

# Same assay, conditions: Penicillium expansum, read-out: MIC (content giving complete inhibition of mycelial growth)
row,Structure (SMILES),MIC [µg/mL]
1,"C=CCc1ccc2c(c1)OCO2 [SAFROLE, safrole]",640 to 1280

# Same assay, conditions: Penicillium expansum; PE; min-max range of several experiments; 22° C.; read-out: MIC (content giving complete inhibition of mycelial growth)
row,Structure (SMILES),MIC [µg/mL]
1,"C=C(C)C1CC=C(C)C(=O)C1 (stereo not drawn) [CARVONE, carvone]",80 to 160
2,"C=CCc1ccc(O)c(OC)c1 [EUGENOL, eugenol]",20 to 40
3,"CC12CCC(CC1)C(C)(C)O2 [EUCALYPTOL, eucalyptol]",> 1280
4,"CC=Cc1ccc(O)c(OC)c1 [ISOEUGENOL, isoeugenol]",20 to 40

# System: Phlyctaena vagabonda (“Gloeosporium”)
# Assay: as above
# Type: cell-based
# Conditions: PV; MIC expressed on the scale of Table 2
# Protocol: as §1, §2, §3, §4, §5, §6
row,Structure (SMILES),Inhibition grades
1,"C=C(C)C1CC=C(C)C(=O)C1 (stereo not drawn) [CARVONE, carvone]",5 (80-160)
2,"C=CCc1ccc(O)c(OC)c1 [EUGENOL, eugenol]",6 (40-80)
3,"CC12CCC(CC1)C(C)(C)O2 [EUCALYPTOL, eucalyptol]",4 (160-320)
4,"CC=Cc1ccc(O)c(OC)c1 [ISOEUGENOL, isoeugenol]",7 (20-40)
5,"C=CCc1ccc2c(c1)OCO2 [SAFROLE, safrole]",5 (80-160)

# Same assay, conditions: PV; min-max range of several experiments; 22° C.; read-out: MIC (content giving complete inhibition of mycelial growth)
row,Structure (SMILES),MIC [µg/mL]
1,"C=C(C)C1CC=C(C)C(=O)C1 (stereo not drawn) [CARVONE, carvone]",80 to 160
2,"C=CCc1ccc(O)c(OC)c1 [EUGENOL, eugenol]",40 to 80
3,"CC12CCC(CC1)C(C)(C)O2 [EUCALYPTOL, eucalyptol]",160 to 320
4,"CC=Cc1ccc(O)c(OC)c1 [ISOEUGENOL, isoeugenol]",20 to 40

# Same assay, conditions: read-out: MIC (content giving complete inhibition of mycelial growth)
row,Structure (SMILES),MIC [µg/mL]
1,"C=CCc1ccc2c(c1)OCO2 [SAFROLE, safrole]",80 to 160

# System: spores
# Assay: Germination of the spores in vitro, summary over the fungi tested
# Type: cell-based
# Conditions: summary of Tables 4 to 6
# Protocol: The activity of eugenol and of isoeugenol on the germination of the spores was evaluated in vitro and compared with that of other terpenes.
# The procedure of Example 4 is used to do this, except that the concentration of eugenol and of isoeugenol was set at x μg/ml in the culture media used and that 50 μl of a suspension of spores, adjusted to 100,000 spores/ml, are deposited in each Petri dish.
# The same experiment was carried out starting with a terpene-free culture medium (control test).
# The results obtained for 3 different concentrations of terpenes in the culture medium, namely 40 μg/ml, 80 μg/ml and 1280 μg/ml, are listed in Tables 4, 5 and 6.
# A concentration of 40 μg/ml is sufficient to inhibit the germination of the spores.
row,Structure (SMILES),concentration sufficient to inhibit the germination of the spores [µg/mL]
1,"C=CCc1ccc(O)c(OC)c1 [EUGENOL, eugenol]",40
2,"CC=Cc1ccc(O)c(OC)c1 [ISOEUGENOL, isoeugenol]",40

# System: potato tubers
# Assay: Sprouting-inhibiting treatment of potato tubers by thermal fogging
# Type: in vivo
# Conditions: after 5 months; cold room 8 to 9° C.; 45 g/tonne then 15 g/tonne every 20 days by thermal fogging
# Protocol: The effectiveness of eugenol and of isoeugenol in the sprouting-inhibiting treatment of potato tubers was evaluated and compared with that of other terpenes.
# The following compositions were used in the case of eucalyptol, eugenol, isoeugenol, limonene, safrole and terpineol:
# 60% by weight of terpene;
# 7% by weight of a nonionic emulsifier;
# 33% by weight of butyl acetate.
# In the case of L-carvone, the following composition was employed:
# 30% by weight of L-carvone;
# 10% by weight of ethanol;
# 5% by weight of nonionic emulsifier;
# 35% by weight of propylene glycol.
# Isopropyl chlorophenylcarbamate (CIPC) is a compound used in the art as sprouting inhibitor for potato tubers. Its activity was compared with that of eugenol and of isoeugenol.
# The composition based on isopropyl chloro-phenylcarbamate has the following formulation: […]
# 20% by weight of isopropyl chlorophenyl-carbamate;
# 50% by weight of propylene glycol;
# 10% by weight of nonionic emulsifier;
# Each of the compositions tested was applied by thermal fogging. The temperature at the outlet of the thermal fogging device was 240° C., except in the case of the compositions based on L-carvone and on CIPC, where it was 180° C.
# The amount of composition which has to be applied is calculated in each case so as to obtain an equivalent concentration of active material on the potato tubers.
# In this example, repeated applications were carried out by following the following protocol:
# 45 g/tonne of tubers at the beginning of storage;
# 15 g/tonne of tubers every 20 days; so that, after 6 months, 165 g of active principle have been applied per tonne of tubers.
# During storage, the tubers were stored in a cold room at a temperature of 8 to 9° C.
Structure (SMILES),Loss in weight of the tubers [%],Total weight of the sprouts >2 mm [g],Tubers at the white point stage [%],Tubers with sprouts 2 to 5 mm [%],Tubers with sprouts <2 mm [%],Tubers with sprouts >2 mm [%],Tubers with sprouts >5 mm [%],Unsprouted tubers [%]
"C=CCc1ccc(O)c(OC)c1 [EUGENOL, eugenol]",2.6,3.6,45.3,6.2,35.2,12.0,5.8,7.5
"CC12CCC(CC1)C(C)(C)O2 [EUCALYPTOL, eucalyptol]",3.2,46.2,10.2,36.3,26.7,58.4,22.4,4.4
"CC=Cc1ccc(O)c(OC)c1 [ISOEUGENOL, isoeugenol]",2.7,8.5,22.6,10.6,56.8,14.4,3.8,6.2
"C=CCc1ccc2c(c1)OCO2 [SAFROLE, safrole]",3.6,57.0,6.6,40.1,15.6,76.6,36.5,1.2

# — patent publication US6723364B1, “Fog treatment method using a liquid composition for treating fruits and vegetables and implementing device” (Xeda International, priority 1998, dated 2004)
